Data taken from patent publication US10822311B2, “Pyrimidines and variants thereof, and uses therefor” (Afferent Pharmaceuticals Inc., priority 2016, dated 2020).
Read-outs that look alike come from different tables or passages of the source. Each block holds one molecule with its values, some of them ahead of it.

Tests used:
P2X3 [1] = conditions: Table 3A, oxygen-linked; from Carter et al; cited from earlier work
P2X3 [2] = experiment: Mean pIC50s from Carter et al, P2X3; type: cell-based
P2X3 [3] = experiment: Mean pIC50s from Jahangir et al, P2X3; type: cell-based; conditions: Table 3B, iodo; ratio from the Jahangir et al pIC50s
P2X3 [4] = conditions: Table 3B, iodo; from Jahangir et al; cited from earlier work
P2X2/3 = molecular target: T1, P2X2/3 (Homo sapiens, UniProt P56373+Q9UBL9); conditions: Table 3B, iodo; from Jahangir et al; cited from earlier work
T1 sequence (P56373 1-397): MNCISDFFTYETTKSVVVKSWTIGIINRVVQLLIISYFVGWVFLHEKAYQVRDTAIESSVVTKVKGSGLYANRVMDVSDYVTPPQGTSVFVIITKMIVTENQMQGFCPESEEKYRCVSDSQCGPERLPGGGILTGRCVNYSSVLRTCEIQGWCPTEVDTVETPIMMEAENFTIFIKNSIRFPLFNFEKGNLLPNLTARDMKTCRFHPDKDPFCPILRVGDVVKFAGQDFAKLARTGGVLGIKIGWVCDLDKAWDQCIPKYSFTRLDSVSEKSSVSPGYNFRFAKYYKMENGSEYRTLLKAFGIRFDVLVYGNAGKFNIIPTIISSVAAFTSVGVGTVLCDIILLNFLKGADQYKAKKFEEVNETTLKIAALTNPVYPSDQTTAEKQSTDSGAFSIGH
T1 sequence (Q9UBL9 1-471): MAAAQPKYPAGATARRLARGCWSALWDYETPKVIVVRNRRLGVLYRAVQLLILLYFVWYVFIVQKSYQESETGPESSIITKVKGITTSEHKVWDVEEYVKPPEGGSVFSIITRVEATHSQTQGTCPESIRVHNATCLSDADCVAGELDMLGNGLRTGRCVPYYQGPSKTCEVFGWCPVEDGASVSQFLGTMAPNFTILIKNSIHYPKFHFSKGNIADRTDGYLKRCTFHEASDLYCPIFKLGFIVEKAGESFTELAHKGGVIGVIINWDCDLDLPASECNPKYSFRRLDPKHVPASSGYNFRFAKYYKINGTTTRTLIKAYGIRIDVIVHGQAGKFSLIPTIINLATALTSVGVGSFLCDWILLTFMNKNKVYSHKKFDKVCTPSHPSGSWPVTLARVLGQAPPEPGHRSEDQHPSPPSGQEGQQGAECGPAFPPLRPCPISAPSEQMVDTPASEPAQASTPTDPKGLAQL

[5] = molecular target: T2, human P2X3 receptor (homomeric P2X3 channels) (Homo sapiens, UniProt P56373); experiment: FlexStation calcium fluorescence assay, homomeric P2X3 channels in HEK293 cells; type: cell-based; conditions: for IC50: HEK293 cells, hP2X3, agonist 1 μM α,β-meATP, read-out: Average pIC50 P2X3 (converted); for Selectivity P2X3/P2X2/3: Ratio=10^(P2X3pIC50−P2X2/3pIC50)
T2 construct: expressed in transfected cells; host or cells: HEK293 human embryonic kidney cells (HEK-hP2X3)
T2 sequence (P56373 1-397): T1 sequence (P56373 1-397)
Method: (§1) 1321N1 human astrocytoma and HEK293 human embryonic kidney cells were stably transfected with human P2X2 and P2X3 receptor subunits to form heteromeric P2X2/3 channels and passaged in flasks. Additionally, HEK293 cells were stably transfected with human P2X3 receptor subunits to form homomeric P2X3 channels.
(§2) Approximately 24 hours before the FlexStation calcium fluorescence experiment, cells were released from their flasks, centrifuged and re-suspended in nutrient medium. The cells were aliquoted into black-wall, clear-bottom 96 well plates at a density of 25,000 cells per well and incubated overnight in a humidified, CO2-enriched (5%) atmosphere at 37° C.
(§3) On the day of the experiment, cells were washed with assay buffer (calcium- and magnesium-free Hank's balanced salt solution, 20 mM HEPES, 2 mM CaCl2; AB) and loaded with 4 μM Fluo-4 (P2X2/3) or Calcium 6 (Molecular Devices, according to manufacturer's instructions; P2X3) calcium-sensitive fluorescent dye in 100 μL AB.
(§4) After 1 hour of dye loading at 37° C., 1321N1-hP2X2/3 cells were washed two times with AB and test compound or vehicle added to each well in a total volume of 150 μL AB. HEK-hP2X3 cells were not washed because the Calcium 6 dye kit includes an extracellular dye that quenches unabsorbed Calcium 6 dye; test compound or vehicle were added directly to the assay plates to achieve the appropriate concentration of test compound in a total volume of 150 μL AB.
(§5) After 20 minutes incubation at room temperature and protected from light, the assay plates were loaded into the FlexStation microplate reader and baseline fluorescence measured with an excitation wavelength of 485 nm and emission wavelength readings centered at 525 nm (515 nm cut off).
(§6) The agonist was dispensed by the FlexStation during fluorescence measurement to construct agonist activation and antagonist inhibition curves. The final agonist concentration for inhibition was 1 μM α,β-meATP for P2X3 and 3 μM ATP for P2X2/3. Peak fluorescence was measured and curves generated using a four parameter nonlinear regression equation.

[6] = molecular target: T3, human P2X2/3 (heteromeric P2X2/3 channels) (Homo sapiens, UniProt P56373+Q9UBL9); experiment: FlexStation calcium fluorescence assay, heteromeric P2X2/3 channels in 1321N1 cells; type: cell-based; conditions: for IC50: 1321N1 cells, hP2X2/3, agonist 3 μM ATP, highest concentration tested is 10 μM, read-out: Average pIC50 P2X2/3 (converted)
T3 construct: expressed in transfected cells; host or cells: 1321N1 human astrocytoma cells (1321N1-hP2X2/3)
T3 sequence (P56373 1-397): T1 sequence (P56373 1-397)
T3 sequence (Q9UBL9 1-471): T1 sequence (Q9UBL9 1-471)
Method: as §1, §2, §3, §4, §5, §6

Compound: COc1cc(Oc2cnc(N)nc2N)c(C(C)C)cc1OC [Row A, X = O]
- P2X3 mean pIC50, X = O (P2X3 [1]): 7.6

Compound: COc1cc(C(C)C)c(Oc2cnc(N)nc2N)cc1Cl [Row D, X = O]
- P2X3 mean pIC50, X = O (P2X3 [1]): 7.6
- Selectivity, X = O (P2X3 [2]; Table 3A, oxygen-linked, ratio from the Carter et al pIC50s): 4

Compound: COc1cc(C(C)C)c(Oc2cnc(N)nc2NC(CO)CO)cc1I [Row C, R = I]
- Selectivity, R = I (P2X3 [3]): 2.5
- P2X3 mean pIC50, R = I (P2X3 [4]): 8.7
- P2X2/3 mean pIC50, R = I (P2X2/3): 8.3

Compound: COc1cc(C(C)C)c(Oc2cnc(N)nc2N)cc1I [Row B, X = O]
- P2X3 mean pIC50, X = O (P2X3 [1]): 8.0
- Selectivity, X = O (P2X3 [2]): 8

Compound: COc1cc(Oc2cnc(NC(CCO)CCO)nc2N)c(C(C)C)cc1OC [Compound 21]
- IC50 [5]: 79.4 nM
- Selectivity P2X3/P2X2/3 [5]: 5.0
- IC50 [6]: 398 nM

Compound: COc1cc(C(C)C)c(Oc2cnc(N)nc2N)cc1S(C)(=O)=O [Row C, X = O]
- P2X3 mean pIC50, X = O (P2X3 [1]): 7.0
- Selectivity, X = O (P2X3 [2]): 10

Compound: COc1cc(C(C)C)c(Oc2cnc(N)nc2NCCO)cc1I [Row A, R = I]
- Selectivity, R = I (P2X3 [3]): 1.6
- P2X3 mean pIC50, R = I (P2X3 [4]): 8.0
- P2X2/3 mean pIC50, R = I (P2X2/3): 7.8

Compound: COc1cc(Oc2cnc(NC3CCC3)nc2N)c(C(C)C)cc1OC [Compound 27]
- IC50 [5]: 200 nM
- Selectivity P2X3/P2X2/3 [5]: 2.5
- IC50 [6]: 501 nM

Compound: COc1cc(C(C)C)c(Oc2cnc(N)nc2NCC(O)CO)cc1I (stereo not drawn) [Row B, R = I]
- Selectivity, R = I (P2X3 [3]): 4.0
- P2X3 mean pIC50, R = I (P2X3 [4]): 8.1
- P2X2/3 mean pIC50, R = I (P2X2/3): 7.5

Next, values leading:

- IC50 [5]: 6.31 nM
- IC50 [6]: 200 nM
Compound: C#Cc1cc(Oc2cnc(N)nc2N)c(C(C)C)nc1OC [Compound 19]

- IC50 [5]: 20 nM
- IC50 [6]: 398 nM
Compound: COc1nc(C(C)C)c(Oc2cnc(N)nc2N)cc1S(N)(=O)=O [Compound 20]

- IC50 [5]: 1260 nM
- IC50 [6]: > 10000 nM
Compound: COc1ccc(Oc2cnc(N)nc2N)c(C(C)C)n1 [Compound 14]

- IC50 [5]: 200 nM
- Selectivity P2X3/P2X2/3 [5]: 21
- Selectivity, R = OMe ([5]; Table 3B, P2X3 vs P2X2/3 potency ratio): 20
- P2X3 mean pIC50, R = OMe ([5]; Table 3B, hP2X3, HEK293 cells, Table 2): 6.7
- IC50 [6]: 3980 nM
- P2X2/3 mean pIC50, R = OMe ([6]; Table 3B, hP2X2/3, 1321N1 (astrocytoma) cells, Table 2): 5.4
Compound: COc1cc(Oc2cnc(NCC(O)CO)nc2N)c(C(C)C)cc1OC (stereo not drawn) [Compound 31]

- IC50 [5]: 200 nM
- IC50 [6]: > 10000 nM
Compound: COc1cc(C(C)C)c(Sc2cnc(N)nc2N)cc1Br [Compound 8]

- IC50 [5]: 1000 nM
- Selectivity P2X3/P2X2/3 [5]: >10
- IC50 [6]: > 10000 nM
Compound: COc1cc(Oc2cnc(N)nc2Nc2ccccc2)c(C(C)C)cc1OC [Compound 42]
